Measured values: ChEMBL document CHEMBL1649268, “Comparative in vitro activity profile of oritavancin against recent gram-positive clinical isolates” (2009)
Values after ≈ are worked out from the molar mass of the structure shown.

Experiments:
Type in all cases: functional
Staphylococcus aureus [1] = experiment: Antimicrobial activity against Staphylococcus aureus clinical isolates by broth microdilution method
Enterococcus faecalis [2] = experiment: Antimicrobial activity against vancomycin-nonsusceptible Enterococcus faecalis clinical isolates by broth microdilution method
[3] = Antimicrobial activity against erythromycin-nonsusceptible Streptococcus Group G clinical isolates by broth microdilution method; conditions: Streptococcus sp. 'group G'
Enterococcus faecium [4] = experiment: Antimicrobial activity against Enterococcus faecium expressing VanA gene clinical isolates by broth microdilution method
Streptococcus [5] = experiment: Antimicrobial activity against erythromycin-nonsusceptible Streptococcus Group F clinical isolates by broth microdilution method
Enterococcus faecium [6] = experiment: Antimicrobial activity against vancomycin-susceptible Enterococcus faecium clinical isolates by broth microdilution method
[7] = test system: Staphylococcus haemolyticus; experiment: Antimicrobial activity against oxacillin-susceptible Staphylococcus haemolyticus clinical isolates by broth microdilution method
Enterococcus faecium [8] = experiment: Antimicrobial activity against Enterococcus faecium expressing VanB gene clinical isolates by broth microdilution method
[9] = Antimicrobial activity against erythromycin-nonsusceptible Streptococcus Group C clinical isolates by broth microdilution method; conditions: Streptococcus sp. 'group C'
Streptococcus agalactiae [10] = experiment: Antimicrobial activity against Streptococcus agalactiae clinical isolates by broth microdilution method
Enterococcus faecalis [11] = experiment: Antimicrobial activity against Enterococcus faecalis expressing VanA gene clinical isolates by broth microdilution method
Staphylococcus aureus [12] = experiment: Antimicrobial activity against oxacillin-resistant Staphylococcus aureus clinical isolates by broth microdilution method
[13] = test system: Staphylococcus haemolyticus; experiment: Antimicrobial activity against Staphylococcus haemolyticus clinical isolates by broth microdilution method
Staphylococcus aureus [14] = experiment: Antimicrobial activity against vancomycin-resistant Staphylococcus aureus clinical isolates
Streptococcus pneumoniae [15] = experiment: Antimicrobial activity against penicillin-susceptible Streptococcus pneumoniae clinical isolates by broth microdilution method
[16] = test system: Staphylococcus epidermidis; experiment: Antimicrobial activity against oxacillin-susceptible Staphylococcus epidermidis clinical isolates by broth microdilution method
Streptococcus pyogenes [17] = experiment: Antimicrobial activity against erythromycin-susceptible Streptococcus pyogenes clinical isolates by broth microdilution method
Streptococcus agalactiae [18] = experiment: Antimicrobial activity against erythromycin-nonsusceptible Streptococcus agalactiae clinical isolates by broth microdilution method
[19] = test system: Staphylococcus haemolyticus; experiment: Antimicrobial activity against oxacillin-resistant Staphylococcus haemolyticus clinical isolates by broth microdilution method
Streptococcus pyogenes [20] = experiment: Antimicrobial activity against Streptococcus pyogenes clinical isolates by broth microdilution method
Streptococcus pneumoniae [21] = experiment: Antimicrobial activity against penicillin-resistant Streptococcus pneumoniae clinical isolates by broth microdilution method
Streptococcus agalactiae [22] = experiment: Antimicrobial activity against erythromycin-susceptible Streptococcus agalactiae clinical isolates by broth microdilution method
Enterococcus faecalis [23] = experiment: Antimicrobial activity against Enterococcus faecalis expressing VanB gene clinical isolates by broth microdilution method
[24] = test system: Staphylococcus epidermidis; experiment: Antimicrobial activity against Staphylococcus epidermidis clinical isolates by broth microdilution method
[25] = Antimicrobial activity against Streptococcus Group G clinical isolates by broth microdilution method; conditions: Streptococcus sp. 'group G'
[26] = test system: Staphylococcus epidermidis; experiment: Antimicrobial activity against oxacillin-resistant Staphylococcus epidermidis clinical isolates by broth microdilution method
Enterococcus faecium [27] = experiment: Antimicrobial activity against Enterococcus faecium clinical isolates by broth microdilution method
[28] = Antimicrobial activity against erythromycin-susceptible Streptococcus Group G clinical isolates by broth microdilution method; conditions: Streptococcus sp. 'group G'
Enterococcus faecalis [29] = experiment: Antimicrobial activity against vancomycin-susceptible Enterococcus faecalis clinical isolates by broth microdilution method
Streptococcus [30] = experiment: Antimicrobial activity against Streptococcus Group F clinical isolates by broth microdilution method
Staphylococcus aureus [31] = experiment: Antimicrobial activity against heterogeneous vancomycin-intermediate Staphylococcus aureus clinical isolates
[32] = Antimicrobial activity against erythromycin-susceptible Streptococcus Group C clinical isolates by broth microdilution method; conditions: Streptococcus sp. 'group C'
Enterococcus faecalis [33] = experiment: Antimicrobial activity against Enterococcus faecalis clinical isolates by broth microdilution method
Staphylococcus aureus [34] = experiment: Antimicrobial activity against oxacillin-susceptible Staphylococcus aureus clinical isolates by broth microdilution method
[35] = Antimicrobial activity against Streptococcus Group C clinical isolates by broth microdilution method; conditions: Streptococcus sp. 'group C'
Streptococcus pneumoniae [36] = experiment: Antimicrobial activity against Streptococcus pneumoniae clinical isolates by broth microdilution method
Staphylococcus aureus [37] = experiment: Antimicrobial activity against vancomycin- susceptible Staphylococcus aureus clinical isolates
Streptococcus pneumoniae [38] = experiment: Antimicrobial activity against penicillin-intermediate Streptococcus pneumoniae clinical isolates by broth microdilution method
Streptococcus [39] = experiment: Antimicrobial activity against erythromycin-susceptible Streptococcus Group F clinical isolates by broth microdilution method
Enterococcus faecium [40] = experiment: Antimicrobial activity against vancomycin-nonsusceptible Enterococcus faecium clinical isolates by broth microdilution method
Streptococcus pyogenes [41] = experiment: Antimicrobial activity against erythromycin-nonsusceptible Streptococcus pyogenes clinical isolates by broth microdilution method
Staphylococcus aureus [42] = experiment: Antimicrobial activity against vancomycin-intermediate Staphylococcus aureus clinical isolates
Streptococcus pneumoniae [43] = experiment: Antimicrobial activity against Streptococcus pneumoniae clinical isolates assessed as percent susceptible isolates by broth microdilution method in presence of clavulanate
Streptococcus pneumoniae [44] = experiment: Antimicrobial activity against penicillin-intermediate Streptococcus pneumoniae clinical isolates assessed as resistant isolates by broth microdilution method in presence of clavulanate
Streptococcus pneumoniae [45] = experiment: Antimicrobial activity against penicillin-resistant Streptococcus pneumoniae clinical isolates assessed as percent susceptible isolates by broth microdilution method in presence of clavulanate
Streptococcus pneumoniae [46] = experiment: Antimicrobial activity against penicillin-resistant Streptococcus pneumoniae clinical isolates by broth microdilution method in presence of clavulanate
Streptococcus pneumoniae [47] = experiment: Antimicrobial activity against penicillin-intermediate Streptococcus pneumoniae clinical isolates assessed as percent susceptible isolates by broth microdilution method in presence of clavulanate
Streptococcus pneumoniae [48] = experiment: Antimicrobial activity against penicillin-intermediate Streptococcus pneumoniae clinical isolates by broth microdilution method in presence of clavulanate
Streptococcus pneumoniae [49] = experiment: Antimicrobial activity against penicillin-resistant Streptococcus pneumoniae clinical isolates assessed as resistant isolates by broth microdilution method in presence of clavulanate
Streptococcus pneumoniae [50] = experiment: Antimicrobial activity against Streptococcus pneumoniae clinical isolates assessed as resistant isolates by broth microdilution method in presence of clavulanate
Streptococcus pneumoniae [51] = experiment: Antimicrobial activity against penicillin-susceptible Streptococcus pneumoniae clinical isolates assessed as percent susceptible isolates by broth microdilution method in presence of clavulanate
Streptococcus pneumoniae [52] = experiment: Antimicrobial activity against penicillin-susceptible Streptococcus pneumoniae clinical isolates by broth microdilution method in presence of clavulanate
Streptococcus pneumoniae [53] = experiment: Antimicrobial activity against Streptococcus pneumoniae clinical isolates by broth microdilution method in presence of clavulanate
Streptococcus pneumoniae [54] = experiment: Antimicrobial activity against penicillin-susceptible Streptococcus pneumoniae clinical isolates assessed as resistant isolates by broth microdilution method in presence of clavulanate

## CN[C@H](CC(C)C)C(=O)N[C@H]1C(=O)N[C@@H](CC(N)=O)C(=O)N[C@H]2C(=O)N[C@H]3C(=O)N[C@H](C(=O)N[C@H](C(=O)O)c4cc(O)cc(O)c4-c4cc3ccc4O)[C@H](O[C@H]3C[C@](C)(N)[C@@H](O)[C@H](C)O3)c3ccc(c(Cl)c3)Oc3cc2cc(c3O[C@@H]2O[C@H](CO)[C@@H](O)[C@H](O)[C@H]2O[C@H]2C[C@](C)(NCc3ccc(-c4ccc(Cl)cc4)cc3)[C@@H](O)[C@H](C)O2)Oc2ccc(cc2Cl)[C@H]1O [ORITAVANCIN]
Staphylococcus aureus [1]
  MIC90: 0.12 µg/mL (≈ 0.0669 µM)
Enterococcus faecalis [2]
  MIC90: 1 µg/mL (≈ 0.558 µM)
[3]
  MIC90: 0.25 µg/mL (≈ 0.139 µM)
Enterococcus faecium [4]
  MIC90: 0.25 µg/mL (≈ 0.139 µM)
Streptococcus [5]
  MIC90: 0.25 µg/mL (≈ 0.139 µM)
Enterococcus faecium [6]
  MIC90: 0.03 µg/mL (≈ 0.0167 µM)
[7]
  MIC90: 0.06 µg/mL (≈ 0.0335 µM)
Enterococcus faecium [8]
  MIC90: 0.06 µg/mL (≈ 0.0335 µM)
[9]
  MIC90: 0.25 µg/mL (≈ 0.139 µM)
Streptococcus agalactiae [10]
  MIC90: 0.25 µg/mL (≈ 0.139 µM)
Enterococcus faecalis [11]
  MIC90: 1 µg/mL (≈ 0.558 µM)
Staphylococcus aureus [12]
  MIC90: 0.12 µg/mL (≈ 0.0669 µM)
[13]
  MIC90: 0.12 µg/mL (≈ 0.0669 µM)
Staphylococcus aureus [14]
  MIC90: 0.5 µg/mL (≈ 0.279 µM)
Streptococcus pneumoniae [15]
  MIC90: 0.004 µg/mL (≈ 0.00223 µM)
[16]
  MIC90: 0.25 µg/mL (≈ 0.139 µM)
Streptococcus pyogenes [17]
  MIC90: 0.25 µg/mL (≈ 0.139 µM)
Streptococcus agalactiae [18]
  MIC90: 0.25 µg/mL (≈ 0.139 µM)
[19]
  MIC90: 0.12 µg/mL (≈ 0.0669 µM)
Streptococcus pyogenes [20]
  MIC90: 0.25 µg/mL (≈ 0.139 µM)
Streptococcus pneumoniae [21]
  MIC90: 0.008 µg/mL (≈ 0.00446 µM)
Streptococcus agalactiae [22]
  MIC90: 0.25 µg/mL (≈ 0.139 µM)
Enterococcus faecalis [23]
  MIC90: 0.06 µg/mL (≈ 0.0335 µM)
[24]
  MIC90: 0.25 µg/mL (≈ 0.139 µM)
[25]
  MIC90: 0.5 µg/mL (≈ 0.279 µM)
[26]
  MIC90: 0.25 µg/mL (≈ 0.139 µM)
Enterococcus faecium [27]
  MIC90: 0.12 µg/mL (≈ 0.0669 µM)
[28]
  MIC90: 0.5 µg/mL (≈ 0.279 µM)
Enterococcus faecalis [29]
  MIC90: 0.06 µg/mL (≈ 0.0335 µM)
Streptococcus [30]
  MIC90: 0.5 µg/mL (≈ 0.279 µM)
Staphylococcus aureus [31]
  MIC90: 1 µg/mL (≈ 0.558 µM)
[32]
  MIC: ≤ 0.0005 µg/mL
Enterococcus faecalis [33]
  MIC90: 0.06 µg/mL (≈ 0.0335 µM)
Staphylococcus aureus [34]
  MIC90: 0.12 µg/mL (≈ 0.0669 µM)
[35]
  MIC90: 0.5 µg/mL (≈ 0.279 µM)
Streptococcus pneumoniae [36]
  MIC90: 0.008 µg/mL (≈ 0.00446 µM)
Staphylococcus aureus [37]
  MIC90: 0.12 µg/mL (≈ 0.0669 µM)
Streptococcus pneumoniae [38]
  MIC90: 0.008 µg/mL (≈ 0.00446 µM)
Streptococcus [39]
  MIC90: 0.5 µg/mL (≈ 0.279 µM)
Enterococcus faecium [40]
  MIC90: 0.25 µg/mL (≈ 0.139 µM)
Streptococcus pyogenes [41]
  MIC90: 0.25 µg/mL (≈ 0.139 µM)
Staphylococcus aureus [42]
  MIC90: 1 µg/mL (≈ 0.558 µM)

## CC1(C)S[C@@H]2[C@H](NC(=O)[C@H](N)c3ccc(O)cc3)C(=O)N2[C@H]1C(=O)O [AMOXICILLIN]
Streptococcus pneumoniae [43]
  Activity: 93.1%
Streptococcus pneumoniae [44]
  Activity: 0%
Streptococcus pneumoniae [45]
  Activity: 53.4%
Streptococcus pneumoniae [46]
  MIC90: 8 µg/mL
Streptococcus pneumoniae [47]
  Activity: 99.5%
Streptococcus pneumoniae [48]
  MIC90: 1 µg/mL
Streptococcus pneumoniae [49]
  Activity: 10.1%
Streptococcus pneumoniae [50]
  Activity: 1.5%
Streptococcus pneumoniae [51]
  Activity: 100%
Streptococcus pneumoniae [52]
  MIC90: 0.03 µg/mL
Streptococcus pneumoniae [53]
  MIC90: 2 µg/mL
Streptococcus pneumoniae [54]
  Activity: 0%
